Measured values: patent US20230265151A1, “GIP/GLP1 CO-AGONIST COMPOUNDS” (priority 2020, published 2023)
Read-outs that look alike come from different tables or passages of the source.

Tests used:
Assay type in all cases: cell-based
hGIPR = target: T1, hGIPR (Homo sapiens, UniProt P48546); assay: Functional cAMP formation (HTRF) in HEK-293 clonal cells expressing hGIPR, 0.1% bovine casein, without or with 1.0% human serum albumin; conditions: 37° C.; for Emax: HEK293, cAMP, percent of maximal response to GIP(1-42)NH2, read-out: hGIPR Emax, % ± SEM; for EC50: cAMP, 0.1% bovine casein (no human serum albumin), geometric mean, read-out: hGIPR EC50, nM (SEM, n)
T1 construct: expressed in transfected cells
T1 sequence (P48546 22-466): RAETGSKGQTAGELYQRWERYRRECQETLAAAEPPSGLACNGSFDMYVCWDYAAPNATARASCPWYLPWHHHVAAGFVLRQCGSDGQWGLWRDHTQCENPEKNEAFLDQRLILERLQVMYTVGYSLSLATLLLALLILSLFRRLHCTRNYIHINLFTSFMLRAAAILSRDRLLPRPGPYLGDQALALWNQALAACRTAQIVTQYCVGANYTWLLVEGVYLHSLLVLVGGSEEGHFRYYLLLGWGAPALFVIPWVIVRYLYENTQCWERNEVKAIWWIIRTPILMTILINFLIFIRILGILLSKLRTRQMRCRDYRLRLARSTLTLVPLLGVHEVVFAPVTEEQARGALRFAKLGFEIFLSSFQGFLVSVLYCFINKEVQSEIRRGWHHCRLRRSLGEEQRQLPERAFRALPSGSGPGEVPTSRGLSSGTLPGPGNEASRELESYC
Method in brief: (§1)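 Readings of the HTRF 665/620 nm ratio, which falls as cAMP rises, were converted to nM cAMP using a standard curve after 30 min peptide exposure at 37° C.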

hGCGR = target: T2, hGCGR (Homo sapiens, UniProt P47871); assay: Functional cAMP formation (HTRF) in HEK-293 clonal cells expressing hGCGR, 0.1% bovine casein, without or with 1.0% human serum albumin; conditions: cAMP, 37° C., read-out: hGCGR EC50, nM (SEM, n)
T2 construct: expressed in transfected cells
Method in brief: as §1

hGLP-1R = hGLP-1R (Homo sapiens, UniProt P43220); assay: Functional cAMP formation (HTRF) in HEK-293 clonal cells expressing hGLP-1R, 0.1% bovine casein, without or with 1.0% human serum albumin; set-up: expressed in transfected cells; conditions: 37° C.; for Emax: HEK293, cAMP, percent of maximal response to GLP-1(7-36)NH2, read-out: hGLP-1R Emax, % ± SEM; for EC50: cAMP, 0.1% bovine casein (no human serum albumin), geometric mean, read-out: hGLP-1R EC50, nM (SEM, n)
Method in brief: as §1

[1] = 0.1% bovine casein and 1.0% human serum albumin
[2] = 0.1% bovine casein, arithmetic mean
[3] = 0.1% bovine casein (no human serum albumin), geometric mean
[4] = 0.1% bovine casein and 1.0% human serum albumin, geometric mean (SEM, n)

T2 sequence (P47871 26-477): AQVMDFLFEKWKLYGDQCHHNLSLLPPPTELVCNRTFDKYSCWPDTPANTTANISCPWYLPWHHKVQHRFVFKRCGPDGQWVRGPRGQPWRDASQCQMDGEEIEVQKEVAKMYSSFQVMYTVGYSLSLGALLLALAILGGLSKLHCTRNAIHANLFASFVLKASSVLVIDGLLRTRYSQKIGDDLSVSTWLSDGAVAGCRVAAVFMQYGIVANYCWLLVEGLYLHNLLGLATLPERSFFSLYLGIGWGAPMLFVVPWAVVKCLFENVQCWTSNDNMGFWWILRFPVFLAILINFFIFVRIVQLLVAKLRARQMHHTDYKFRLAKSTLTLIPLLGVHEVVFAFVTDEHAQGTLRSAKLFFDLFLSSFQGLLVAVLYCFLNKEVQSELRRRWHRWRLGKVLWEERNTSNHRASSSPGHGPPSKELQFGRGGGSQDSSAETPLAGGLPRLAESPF
Chain of hGLP-1R (P43220 24-463): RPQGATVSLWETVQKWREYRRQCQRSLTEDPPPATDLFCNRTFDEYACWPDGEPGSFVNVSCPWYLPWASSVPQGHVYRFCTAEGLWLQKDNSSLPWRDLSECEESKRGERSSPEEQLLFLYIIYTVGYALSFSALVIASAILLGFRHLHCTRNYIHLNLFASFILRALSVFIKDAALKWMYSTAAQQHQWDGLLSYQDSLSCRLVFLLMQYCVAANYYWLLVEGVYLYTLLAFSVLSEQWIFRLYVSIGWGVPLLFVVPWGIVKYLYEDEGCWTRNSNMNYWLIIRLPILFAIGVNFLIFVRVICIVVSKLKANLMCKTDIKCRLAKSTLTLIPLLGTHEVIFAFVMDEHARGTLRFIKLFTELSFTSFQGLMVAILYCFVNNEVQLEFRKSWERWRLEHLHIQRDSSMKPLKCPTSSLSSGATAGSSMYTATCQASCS

Row | Structure (SMILES) | Emax (hGIPR; [1]) [%] | Emax (hGIPR; [2]) [%] | EC50 (hGIPR) [nM] | EC50 (hGCGR; [3]) [nM] | EC50 (hGCGR; [4]) [nM] | Emax (hGLP-1R; [1]) [%] | Emax (hGLP-1R; [2]) [%] | EC50 (hGLP-1R) [nM]
1 | CC[C@H](C)[C@H](NC(=O)[C@H](CC(C)C)NC(=O)[C@](C)(Cc1ccc(O)cc1)NC(=O)[C@@H](CCC(=O)O)NC(=O)[C@@H](NC(=O)[C@H](Cc1ccccc1)NC(=O)[C@H](CCCCNC(=O)CCOCCOCCOCCOCCNC(=O)CC[C@H](NC(=O)CCCCCCCCCCCCC(=O)O)C(=O)O)NC(=O)C(C)(C)NC(=O)[C@H](CCC(N)=O)NC(=O)[C@H](C)NC(=O)[C@H](CCCCNC(=O)CCOCCOCCOCCOCCNC(=O)CC[C@H](NC(=O)CCCCCCCCCCCCC(=O)O)C(=O)O)NC(=O)[C@H](CCCN)NC(=O)[C@H](CC(=O)O)NC(=O)[C@H](CC(C)C)NC(=O)[C@](C)(CC(C)C)NC(=O)[C@@H](NC(=O)C(C)(C)NC(=O)[C@H](Cc1ccncc1)NC(=O)[C@H](CC(=O)O)NC(=O)[C@H](CO)NC(=O)[C@@H](NC(=O)[C@](C)(Cc1ccccc1F)NC(=O)[C@@H](NC(=O)CNC(=O)[C@H](CCC(=O)O)NC(=O)C(C)(C)NC(=O)[C@@H](N)Cc1ccc(O)cc1)[C@@H](C)O)[C@@H](C)O)[C@@H](C)CC)[C@@H](C)CC)C(=O)N[C@@H](CCC(=O)O)C(=O)NCC(=O)NCC(=O)N1CCC[C@H]1C(=O)N[C@@H](CO)C(=O)N[C@@H](CO)C(=O)NCC(=O)N[C@@H](C)C(=O)N1CCC[C@H]1C(=O)N1CCC[C@H]1C(=O)N1CCC[C@H]1C(=O)N[C@@H](CO)C(N)=O [Example 405] | 74.3 | 100 | 0.0209 | > 9950 | > 9950 | 78.1 | 93.3 | 1.26
2 | CC[C@H](C)[C@H](NC(=O)[C@H](CC(C)C)NC(=O)[C@](C)(Cc1ccc(O)cc1)NC(=O)[C@@H](CCC(=O)O)NC(=O)[C@@H](NC(=O)[C@H](Cc1ccccc1)NC(=O)[C@H](CCCCNC(=O)COCCOCCNC(=O)COCCOCCNC(=O)CC[C@H](NC(=O)CCCCCCCCCCCCC(=O)O)C(=O)O)NC(=O)C(C)(C)NC(=O)[C@H](CCC(N)=O)NC(=O)[C@H](C)NC(=O)[C@H](CCCCNC(=O)COCCOCCNC(=O)COCCOCCNC(=O)CC[C@H](NC(=O)CCCCCCCCCCCCC(=O)O)C(=O)O)NC(=O)[C@H](CCCN)NC(=O)[C@H](CC(=O)O)NC(=O)[C@H](CC(C)C)NC(=O)[C@](C)(CC(C)C)NC(=O)[C@@H](NC(=O)C(C)(C)NC(=O)[C@H](Cc1ccncc1)NC(=O)[C@H](CC(=O)O)NC(=O)[C@H](CO)NC(=O)[C@@H](NC(=O)[C@](C)(Cc1ccccc1F)NC(=O)[C@@H](NC(=O)CNC(=O)[C@H](CCC(=O)O)NC(=O)C(C)(C)NC(=O)[C@@H](N)Cc1ccc(O)cc1)[C@@H](C)O)[C@@H](C)O)[C@@H](C)CC)[C@@H](C)CC)C(=O)N[C@@H](CCCN)C(=O)NCC(=O)NCC(=O)N1CCC[C@H]1C(=O)N[C@@H](CO)C(=O)N[C@@H](CO)C(=O)NCC(=O)N[C@@H](C)C(=O)N1CCC[C@H]1C(=O)N1CCC[C@H]1C(=O)N1CCC[C@H]1C(=O)N[C@@H](CO)C(N)=O [Example 406] | 87.3 | – | 0.00896 | > 9950 | > 9950 | 96 | 98.5 | 0.351
